US20190119251A1, “AMIDE-SUBSTITUTED ARYLTRIAZOLE DERIVATIVES AND USES THEREOF” (BAYER PHARMA AKTIENGESELLSCHAFT, priority 2016, published 2019)

Experiments:
[1] = molecular target: T1, human V1a receptor (Homo sapiens, UniProt P37288); assay: Cellular in vitro assay for determining vasopressin receptor activity (V1a cell line, aequorin luminescence); type: cell-based; conditions: for IC50: CHO cell line transfected with the human V1a receptor, agonist [Arg8]-vasopressin at EC50 concentration, read-out: IC50 hV1a; for ratio IC50 hV2/hV1a: ratio of cellular IC50 values, human V2 over human V1a
T1 construct: expressed in transfected cells; host or cells: CHO K1 (Chinese hamster ovary), also stably transfected with modified aequorin
T1 sequence (P37288 whole entry): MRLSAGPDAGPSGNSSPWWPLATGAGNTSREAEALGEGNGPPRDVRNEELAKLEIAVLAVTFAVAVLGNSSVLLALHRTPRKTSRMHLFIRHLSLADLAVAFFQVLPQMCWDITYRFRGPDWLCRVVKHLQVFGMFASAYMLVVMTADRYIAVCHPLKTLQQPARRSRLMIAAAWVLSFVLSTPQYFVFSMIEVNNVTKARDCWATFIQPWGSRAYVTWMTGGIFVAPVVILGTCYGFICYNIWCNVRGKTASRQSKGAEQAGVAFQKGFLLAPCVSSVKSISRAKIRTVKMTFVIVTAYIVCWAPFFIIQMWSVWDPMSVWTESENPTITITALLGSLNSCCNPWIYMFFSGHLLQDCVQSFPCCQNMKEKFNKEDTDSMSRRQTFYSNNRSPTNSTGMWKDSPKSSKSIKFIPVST
Protocol: (§1) B-1. Cellular In Vitro Assay for Determining Vasopressin Receptor Activity
(§2) The identification of agonists and antagonists of the V 1 a and V2 vasopressin receptors from humans, rats and dogs as well as the quantification of the activity of the compounds of the invention is carried out using recombinant cell lines. These cell lines originally derive from a hamster's ovary epithelial cell (Chinese Hamster Ovary, CHO K1, ATCC: American Type Culture Collection, Manassas, Va. 20108, USA). The test cell lines constitutively express the human, rat or dog
(§3) V1 a or V2 receptors. In case of the Gag-coupled V 1 a receptors, cells are also stably transfected with a modified form of the calcium-sensitive photoproteins aequorin (human and rat V1a) or obelin (dog V 1 a), which, after reconstitution with the cofactor coelenterazine, emit light when there are increases in free calcium concentrations [Rizzuto R, Simpson A W, Brini M, Pozzan T, Nature 358, 325-327 (1992); Illarionov B A, Bondar V S, Illarionova V A, Vysotski E S, Gene 153 (2), 273-274 (1995)]. The resulting vasopressin receptor cells react to stimulation of the recombinantly expressed V 1 a receptors by intracellular release of calcium ions, which can be quantified by the resulting photoprotein luminescence. The Gs-coupled V2 receptors are stably transfected into cell lines expressing the gene for firefly luciferase under control of a CRE-responsible promoter. Activation of V2 receptors induces the activation of the CRE-responsive promoter via cAMP increase, thereby inducing the expression of firefly luciferase. The light emitted by photoproteins of V1a cell lines as well as the light emitted by firefly luciferase of V2 cell lines corresponds to the activation or inhibition of the respective vasopressin receptor. The bioluminescence of the cell lines is detected using a suitable luminometer [Milligan G, Marshall F, Rees S, Trends in Pharmacological Sciences 17, 235-237 (1996)].
Vasopressin V1a Receptor Cell Lines:
On the day before the assay, the cells are plated out in culture medium (DMEM/F12, 2% FCS, 2 mM glutamine, 10 mM HEPES, 5 μg/ml coelenterazine) in 384-well microtiter plates and kept in a cell incubator (96% humidity, 5% v/v CO2, 37° C.). On the day of the assay, test compounds in various concentrations are placed for 10 minutes in the wells of the microtiter plate before the agonist [Arg^8]-vasopressin at EC50 concentration is added. The resulting light signal is measured immediately in a luminometer.
(§4) Table 1A below lists individual IC50 values for the compounds of the invention (including racemic mixtures as well as separated enantiomers) that were obtained from cell lines transfected with the human V1a or V2 receptor: […]

[2] = molecular target: T2, human V2 receptor (Homo sapiens, UniProt P30518); assay: Cellular in vitro assay for determining vasopressin receptor activity (V2 cell line, CRE-luciferase); type: cell-based; conditions: CHO cell line transfected with the human V2 receptor; agonist [Arg8]-vasopressin at EC50 concentration; 3 hours incubation; read-out: IC50 hV2
T2 construct: expressed in transfected cells; host or cells: CHO K1 (Chinese hamster ovary) expressing firefly luciferase under a CRE-responsive promoter
T2 sequence (P30518 whole entry): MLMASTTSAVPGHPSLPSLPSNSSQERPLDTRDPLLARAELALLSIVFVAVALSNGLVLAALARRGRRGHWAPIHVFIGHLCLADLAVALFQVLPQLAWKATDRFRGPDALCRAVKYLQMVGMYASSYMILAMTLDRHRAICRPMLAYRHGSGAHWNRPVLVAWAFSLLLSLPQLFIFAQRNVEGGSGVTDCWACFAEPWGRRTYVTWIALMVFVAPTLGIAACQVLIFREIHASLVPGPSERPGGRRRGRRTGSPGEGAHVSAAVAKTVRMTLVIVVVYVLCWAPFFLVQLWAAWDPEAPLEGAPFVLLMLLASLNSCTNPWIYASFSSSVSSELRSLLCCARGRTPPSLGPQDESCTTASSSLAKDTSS
Protocol: as §1, §2, §3
Vasopressin V2 Receptor Cell Lines:
On the day before the assay, the cells are plated out in culture medium (DMEM/F12, 2% FCS, 2 mM glutamine, 10 mM HEPES) in 384-well microtiter plates and kept in a cell incubator (96% humidity, 5% v/v CO2, 37° C.). On the day of the assay, test compounds in various concentrations and the agonist [Arg^8]-vasopressin at EC50 concentration are added together to the wells, and plates are incubated for 3 hours in a cell incubator. Upon addition of the cell lysis reagent Triton™ and the substrate luciferin, luminescence of firefly luciferase is measured in a luminometer.
as §4

`CCc1cccnc1-n1nc(Cn2nc(-c3ccc(Cl)cc3)n(C[C@H](O)C(F)(F)F)c2=O)nc1C(N)=O` [Example 1, 3-({3-(4-Chlorophenyl)-5-oxo-4-[(2S)-3,3,3-trifluoro-2-hydroxypropyl]-4,5-dihydro-1H-1,2,4-triazol-1-yl}methyl)-1-(3-ethylpyridin-2-yl)-1H-1,2,4-triazole-5-carboxamide] was tested, and the IC50 [1] was 0.0051 µM, the “ratio IC50 hV2/hV1a” value [1] was 1.7 and the IC50 [2] was 0.00873 µM.
For `Cc1cccnc1-n1nc(Cn2nc(-c3ccc(Cl)cc3)n(C[C@H](O)C(F)(F)F)c2=O)nc1C(N)=O` [Example 2, 3-({3-(4-Chlorophenyl)-5-oxo-4-[(2S)-3,3,3-trifluoro-2-hydroxypropyl]-4,5-dihydro-1H-1,2,4-triazol-1-yl}methyl)-1-(3-methylpyridin-2-yl)-1H-1,2,4-triazole-5-carboxamide], the IC50 [1] was 0.00515 µM, the “ratio IC50 hV2/hV1a” value [1] was 4.5 and the IC50 [2] was 0.0232 µM.
`Cc1cnccc1-n1nc(Cn2nc(-c3ccc(Cl)cc3)n(C[C@H](O)C(F)(F)F)c2=O)nc1C(N)=O` [Example 3, 3-({3-(4-Chlorophenyl)-5-oxo-4-[(2S)-3,3,3-trifluoro-2-hydroxypropyl]-4,5-dihydro-1H-1,2,4-triazol-1-yl}methyl)-1-(3-methylpyridin-4-yl)-1H-1,2,4-triazole-5-carboxamide] was tested, and the IC50 [1] was 0.0067 µM, the “ratio IC50 hV2/hV1a” value [1] was 14.0 and the IC50 [2] was 0.094 µM.
`COc1cccnc1-n1nc(Cn2nc(-c3ccc(Cl)cc3)n(C[C@H](O)C(F)(F)F)c2=O)nc1C(N)=O` [Example 4, 3-({3-(4-Chlorophenyl)-5-oxo-4-[(2S)-3,3,3-trifluoro-2-hydroxypropyl]-4,5-dihydro-1H-1,2,4-triazol-1-yl}methyl)-1-(3-methoxypyridin-2-yl)-1H-1,2,4-triazole-5-carboxamide] was tested, and the IC50 [1] was 0.0072 µM, the “ratio IC50 hV2/hV1a” value [1] was 3.8 and the IC50 [2] was 0.027 µM.
`NC(=O)c1nc(Cn2nc(-c3ccc(Cl)cc3)n(C[C@H](O)C(F)(F)F)c2=O)nn1-c1ncccc1F` [Example 5, 3-({3-(4-Chlorophenyl)-5-oxo-4-[(2S)-3,3,3-trifluoro-2-hydroxypropyl]-4,5-dihydro-1H-1,2,4-triazol-1-yl}methyl)-1-(3-fluoropyridin-2-yl)-1H-1,2,4-triazole-5-carboxamide] was tested, and the IC50 [1] was 0.0175 µM, the “ratio IC50 hV2/hV1a” value [1] was 2.6 and the IC50 [2] was 0.046 µM.
In the case of `NC(=O)c1nc(Cn2nc(-c3ccc(Cl)cc3)n(C[C@H](O)C(F)(F)F)c2=O)nn1-c1ccncc1Cl` [Example 6, 3-({3-(4-Chlorophenyl)-5-oxo-4-[(2S)-3,3,3-trifluoro-2-hydroxypropyl]-4,5-dihydro-1H-1,2,4-triazol-1-yl}methyl)-1-(3-chloropyridin-4-yl)-1H-1,2,4-triazole-5-carboxamide], the IC50 [1] is reported as 0.027 µM, the “ratio IC50 hV2/hV1a” value [1] is reported as 14.4 and the IC50 [2] is reported as 0.39 µM.
With `COC(=O)c1cccnc1-n1nc(Cn2nc(-c3ccc(Cl)cc3)n(C[C@H](O)C(F)(F)F)c2=O)nc1C(N)=O` [Example 7, Methyl 2-[5-carbamoyl-3-({3-(4-chlorophenyl)-5-oxo-4-[(2S)-3,3,3-trifluoro-2-hydroxypropyl]-4,5-dihydro-1H-1,2,4-triazol-1-yl}methyl)-1H-1,2,4-triazol-1-yl]pyridine-3-carboxylate] the IC50 [1] was 0.054 µM, the “ratio IC50 hV2/hV1a” value [1] was 6.1 and the IC50 [2] was 0.33 µM.
For `NC(=O)c1nc(Cn2nc(-c3ccc(Cl)cc3)n(C[C@H](O)C(F)(F)F)c2=O)nn1-c1ccncc1F` [Example 8, 3-({3-(4-Chlorophenyl)-5-oxo-4-[(2S)-3,3,3-trifluoro-2-hydroxypropyl]-4,5-dihydro-1H-1,2,4-triazol-1-yl}methyl)-1-(3-fluoropyridin-4-yl)-1H-1,2,4-triazole-5-carboxamide], the IC50 [1] was 0.07 µM, the “ratio IC50 hV2/hV1a” value [1] was 3.5 and the IC50 [2] was 0.248 µM.
